In patent publication US10947271B2, “Antibacterial agents” (THE UNIVERSITY OF QUEENSLAND, priority 2014, dated 2021):

Legend:
Type in all cases: cell-based
Details in all cases: 24 h incubation, visual reading
[1] = system: Streptococcus pneumoniae MDR ATCC 700677; assay: MIC assay, S. pneumoniae MDR ATCC 700677
In short: (§1)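 Overnight MHB cultures at 37° C were diluted 40-fold and grown 2-3 hrs to mid-log, then added at 5×10e5 CFU/mL to twofold compound dilutions (8 to 0.003 μg/ml). Plates were incubated 24 h at 37° C and MIC scored by eye.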

[2] = system: Enterococcus faecium MDR Van A ATCC 51559; assay: MIC assay, E. faecium MDR Van A ATCC 51559
In short: as §1

[3] = system: Staphylococcus aureus MRSA ATCC 43300; assay: MIC assay, S. aureus MRSA ATCC 43300
In short: as §1

SMILES | Minimum Inhibitory Concentration (MIC) S. pneumoniae ATCC 700677 [1] | Minimum Inhibitory Concentration (MIC) E. faecium ATCC51559 [2] | Minimum Inhibitory Concentration (MIC) Staph. aureus ATCC43300 [3]
CNC(=O)C(CCCCNC(=O)C1NC(=O)C2NC(=O)C(NC(=O)C3NC(=O)C(CC(N)=O)NC(=O)C(NC(=O)C(CC(C)C)NC)C(O)c4ccc(c(Cl)c4)Oc4cc3cc(c4OC3OC(CO)C(O)C(O)C3OC3CC(C)(N)C(O)C(C)O3)Oc3ccc(cc3Cl)C2O)c2ccc(O)c(c2)-c2c(O)cc(O)cc21)NC(=O)C(CCCCN)NC(=O)C(CCCCN)NC(=O)c1ccc(OCc2ccccc2)cc1 (stereo not drawn) [MCC_000518] | xxx (xxx = 0.1-<1) | x (x = >4) | xxx (xxx = 0.1-<1)
CCCCCCCCCCCCCC(=O)N[C@@H](CCCCN)C(=O)N[C@@H](CCCCN)C(=O)NCC(=O)NCCCNC(=O)[C@H]1NC(=O)[C@H]2NC(=O)[C@H](NC(=O)[C@@H]3NC(=O)[C@H](CC(N)=O)NC(=O)[C@H](NC(=O)[C@@H](CC(C)C)NC)[C@H](O)c4ccc(c(Cl)c4)Oc4cc3cc(c4O[C@@H]3O[C@H](CO)[C@@H](O)[C@H](O)[C@H]3O[C@H]3C[C@](C)(N)[C@H](O)[C@H](C)O3)Oc3ccc(cc3Cl)[C@H]2O)c2ccc(O)c(c2)-c2c(O)cc(O)cc21 [MCC_000784] | xxxxx (xxxxx = <0.01) | xxxx (xxxx = 0.01-<0.1) | xxxxx (xxxxx = <0.01)
CCCCCC1CCC(C(=O)NC(CCCCN)C(=O)NC(CCCCN)C(=O)NCCCNC(=O)C2NC(=O)C3NC(=O)C(NC(=O)C4NC(=O)C(CC(N)=O)NC(=O)C(NC(=O)C(CC(C)C)NC)C(O)c5ccc(c(Cl)c5)Oc5cc4cc(c5OC4OC(CO)C(O)C(O)C4OC4CC(C)(N)C(O)C(C)O4)Oc4ccc(cc4Cl)C3O)c3ccc(O)c(c3)-c3c(O)cc(O)cc32)CC1 (stereo not drawn) [MCC_005485] | xxxxx (xxxxx = <0.01) | xx (xx = 1-4) | xxxxx (xxxxx = <0.01)
CCCCCOc1ccc(C(=O)N[C@@H](CCCCN)C(=O)N[C@@H](CCCCN)C(=O)N[C@@H](CCCCNC(=O)[C@H]2NC(=O)[C@H]3NC(=O)[C@H](NC(=O)[C@@H]4NC(=O)[C@H](CC(N)=O)NC(=O)[C@H](NC(=O)[C@@H](CC(C)C)NC)[C@H](O)c5ccc(c(Cl)c5)Oc5cc4cc(c5O[C@@H]4O[C@H](CO)[C@@H](O)[C@H](O)[C@H]4O[C@H]4C[C@](C)(N)[C@H](O)[C@H](C)O4)Oc4ccc(cc4Cl)[C@H]3O)c3ccc(O)c(c3)-c3c(O)cc(O)cc32)C(=O)O)cc1 [MCC_005504] | xxx (xxx = 0.1-<1) | x (x = >4) | xxx (xxx = 0.1-<1)
CCCCCCCC(=O)N[C@@H](CCCCN)C(=O)N[C@@H](CCCCN)C(=O)NCCNC(=O)[C@H]1NC(=O)[C@H]2NC(=O)[C@H](NC(=O)[C@@H]3NC(=O)[C@H](CC(N)=O)NC(=O)[C@H](NC(=O)[C@@H](CC(C)C)NC)[C@H](O)c4ccc(c(Cl)c4)Oc4cc3cc(c4O[C@@H]3O[C@H](CO)[C@@H](O)[C@H](O)[C@H]3O[C@H]3C[C@](C)(N)[C@H](O)[C@H](C)O3)Oc3ccc(cc3Cl)[C@H]2O)c2ccc(O)c(c2)-c2c(O)cc(O)cc21 [MCC_005164] | xxx (xxx = 0.1-<1) | x (x = >4) | xxx (xxx = 0.1-<1)
CCCCCCCCCCCCCCC(=O)NC(CCCCN)C(=O)NC(CCCCN)C(=O)NC(CCCCNC(=O)C1NC(=O)C2NC(=O)C(NC(=O)C3NC(=O)C(CC(N)=O)NC(=O)C(NC(=O)C(CC(C)C)NC)C(O)c4ccc(c(Cl)c4)Oc4cc3cc(c4OC3OC(CO)C(O)C(O)C3OC3CC(C)(N)C(O)C(C)O3)Oc3ccc(cc3Cl)C2O)c2ccc(O)c(c2)-c2c(O)cc(O)cc21)C(=O)NC (stereo not drawn) [MCC_000495] | xxxxx (xxxxx = <0.01) | xxx (xxx = 0.1-<1) | xxxx (xxxx = 0.01-<0.1)
CCCCCCCCCC(=O)N[C@@H](CCCCN(CC)CC)C(=O)N[C@@H](CCCCNC(=O)[C@H]1NC(=O)[C@H]2NC(=O)[C@H](NC(=O)[C@@H]3NC(=O)[C@H](CC(N)=O)NC(=O)[C@H](NC(=O)[C@@H](CC(C)C)NC)[C@H](O)c4ccc(c(Cl)c4)Oc4cc3cc(c4O[C@@H]3O[C@H](CO)[C@@H](O)[C@H](O)[C@H]3O[C@H]3C[C@](C)(N)[C@H](O)[C@H](C)O3)Oc3ccc(cc3Cl)[C@H]2O)c2ccc(O)c(c2)-c2c(O)cc(O)cc21)C(=O)O [MCC_007330] | xxx (xxx = 0.1-<1) | x (x = >4) | xxx (xxx = 0.1-<1)
CCCCCCCCCCCCCC(=O)N[C@@H](CCCN)C(=O)N[C@@H](CCCN)C(=O)NCC(=O)NCCNC(=O)[C@H]1NC(=O)[C@H]2NC(=O)[C@H](NC(=O)[C@@H]3NC(=O)[C@H](CC(N)=O)NC(=O)[C@H](NC(=O)[C@@H](CC(C)C)NC)[C@H](O)c4ccc(c(Cl)c4)Oc4cc3cc(c4O[C@@H]3O[C@H](CO)[C@@H](O)[C@H](O)[C@H]3O[C@H]3C[C@](C)(N)[C@H](O)[C@H](C)O3)Oc3ccc(cc3Cl)[C@H]2O)c2ccc(O)c(c2)-c2c(O)cc(O)cc21 [MCC_000228] | xxxxx (xxxxx = <0.01) | xxxx (xxxx = 0.01-<0.1) | xxxxx (xxxxx = <0.01)
CCCCCCCCCCC(=O)N[C@@H](CCCCN)C(=O)N[C@@H](CCCCNC(=O)[C@H]1NC(=O)[C@H]2NC(=O)[C@H](NC(=O)[C@@H]3NC(=O)[C@H](CC(N)=O)NC(=O)[C@H](NC(=O)[C@@H](CC(C)C)NC)[C@H](O)c4ccc(c(Cl)c4)Oc4cc3cc(c4O[C@@H]3O[C@H](CO)[C@@H](O)[C@H](O)[C@H]3O[C@H]3C[C@](C)(N)[C@H](O)[C@H](C)O3)Oc3ccc(cc3Cl)[C@H]2O)c2ccc(O)c(c2)-c2c(O)cc(O)cc21)C(N)=O [MCC_005062] | xxxx (xxxx = 0.01-<0.1) | x (x = >4) | xxxx (xxxx = 0.01-<0.1)
CNC(=O)C(CCCCNC(=O)C1NC(=O)C2NC(=O)C(NC(=O)C3NC(=O)C(CC(N)=O)NC(=O)C(NC(=O)C(CC(C)C)NC)C(O)c4ccc(c(Cl)c4)Oc4cc3cc(c4OC3OC(CO)C(O)C(O)C3OC3CC(C)(N)C(O)C(C)O3)Oc3ccc(cc3Cl)C2O)c2ccc(O)c(c2)-c2c(O)cc(O)cc21)NC(=O)C(CCCCN)NC(=O)C(CCCCN)NC(=O)CCCCCCCCc1ccccc1 (stereo not drawn) [MCC_000509] | xxxxx (xxxxx = <0.01) | xx (xx = 1-4) | xxxx (xxxx = 0.01-<0.1)
CCCCCCCCCCCC(=O)N[C@@H](CCCCN)C(=O)N[C@@H](CCCCN)C(=O)NCCCNC(=O)[C@H]1NC(=O)[C@H]2NC(=O)[C@H](NC(=O)[C@@H]3NC(=O)[C@H](CC(N)=O)NC(=O)[C@H](NC(=O)[C@@H](CC(C)C)NC)[C@H](O)c4ccc(c(Cl)c4)Oc4cc3cc(c4O[C@@H]3O[C@H](CO)[C@@H](O)[C@H](O)[C@H]3O[C@H]3C[C@](C)(N)[C@H](O)[C@H](C)O3)Oc3ccc(cc3Cl)[C@H]2O)c2ccc(O)c(c2)-c2c(O)cc(O)cc21 [MCC_000978] | xxxxx (xxxxx = <0.01) | xxx (xxx = 0.1-<1) | xxxxx (xxxxx = <0.01)
CCCCCCCCC(=O)N[C@@H](CCCNC(=N)N)C(=O)N[C@@H](CCCCNC(=O)[C@H]1NC(=O)[C@H]2NC(=O)[C@H](NC(=O)[C@@H]3NC(=O)[C@H](CC(N)=O)NC(=O)[C@H](NC(=O)[C@@H](CC(C)C)NC)[C@H](O)c4ccc(c(Cl)c4)Oc4cc3cc(c4O[C@@H]3O[C@H](CO)[C@@H](O)[C@H](O)[C@H]3O[C@H]3C[C@](C)(N)[C@H](O)[C@H](C)O3)Oc3ccc(cc3Cl)[C@H]2O)c2ccc(O)c(c2)-c2c(O)cc(O)cc21)C(=O)O [MCC_007385] | xxx (xxx = 0.1-<1) | x (x = >4) | xxx (xxx = 0.1-<1)
CCCCCCC(CCCC)C(=O)NCCCC[C@H](NC(=O)C(CCCC)CCCCCC)C(=O)N[C@@H](CCCCN)C(=O)N[C@@H](CCCCN)C(=O)N[C@@H](CCCCNC(=O)[C@H]1NC(=O)[C@H]2NC(=O)[C@H](NC(=O)[C@@H]3NC(=O)[C@H](CC(N)=O)NC(=O)[C@H](NC(=O)[C@@H](CC(C)C)NC)[C@H](O)c4ccc(c(Cl)c4)Oc4cc3cc(c4O[C@@H]3O[C@H](CO)[C@@H](O)[C@H](O)[C@H]3O[C@H]3C[C@](C)(N)[C@H](O)[C@H](C)O3)Oc3ccc(cc3Cl)[C@H]2O)c2ccc(O)c(c2)-c2c(O)cc(O)cc21)C(=O)NC (stereo partly drawn) [MCC_000773] | xxxx (xxxx = 0.01-<0.1) | xxx (xxx = 0.1-<1) | xxxx (xxxx = 0.01-<0.1)
CNc1ccc(C(=O)N[C@@H](CCCCN)C(=O)N[C@@H](CCCCN)C(=O)N[C@@H](CCCCNC(=O)[C@H]2NC(=O)[C@H]3NC(=O)[C@H](NC(=O)[C@@H]4NC(=O)[C@H](CC(N)=O)NC(=O)[C@H](NC(=O)[C@@H](CC(C)C)NC)[C@H](O)c5ccc(c(Cl)c5)Oc5cc4cc(c5O[C@@H]4O[C@H](CO)[C@@H](O)[C@H](O)[C@H]4O[C@H]4C[C@](C)(N)[C@H](O)[C@H](C)O4)Oc4ccc(cc4Cl)[C@H]3O)c3ccc(O)c(c3)-c3c(O)cc(O)cc32)C(N)=O)cc1 [MCC_004822] | xx (xx = 1-4) | x (x = >4) | xxx (xxx = 0.1-<1)
